According to publication PMC12471299, “Secondary Metabolites of the Marine Sponge-Derived Fungus Aspergillus subramanianii 1901NT-1.40.2 and Their Antimicrobial and Anticancer Activities” (Marine Drugs, 2025):
Converted amounts (≈) assume the structure as drawn.

Columns and labels:
Assay type in all cases: cell-based
Candida albicans KMM 455 [1] = test: Antimicrobial assay, growth inhibition (optical density); details: Candida albicans, KMM455, 18 h, C. albicans, 18 h
Experimental: (§1) The Gram-positive bacterial Staphylococcus aureus ATCC 21027, Gram-negative bacterial Escherichia coli VKPM (B-7935), and yeast-like fungal Candida albicans KMM 455 strains were fermented on solid medium Mueller Hinton broth with agar (16.0 g/L) in a Petri dish at 37 °C for 24 h. The antimicrobial activity of the compound was tested at concentrations ranging from 100 µM and lower. The effect of the compound on bacterial growth was estimated as described by. Gentamicin and amphotericin B were used as positive controls against S. aureus, E. coli, and C. albicans, and a 1% dimethyl sulfoxide (DMSO) solution in PBS was used as a negative control. The optical density of the bacterial suspension after 18 h was measured at λ = 620 nm. The effect of the compound on biofilm formation for 18 h was tested using MTT reagent (Sigma-Aldrich, St. Louis, MO, USA) in accordance with. The optical density of the obtained solution was measured at λ = 570 nm. A Multiskan FS spectrophotometer (Thermo Scientific Inc., Beverly, MA, USA) was used for both assays. The results were calculated as percentages of the control data and presented as minimal concentrations reduced by 50% of growth or biofilm formation (MIC50).

Candida albicans KMM 455 [2] = test: Biofilm formation assay (MTT); details: C. albicans, 18 h
Experimental: as §1

[3] = system: Escherichia coli VKPM (B-7935); test: Antimicrobial assay, growth inhibition (optical density); details: Escherichia coli, 18 h, E. coli
Experimental: as §1

[4] = system: Staphylococcus aureus ATCC 21027; test: as above; details: Staphylococcus aureus, ATCC21027, 18 h, S. aureus, 18 h
Experimental: as §1

[5] = system: Escherichia coli VKPM (B-7935); test: Biofilm formation assay (MTT); details: E. coli, 18 h
Experimental: as §1

[6] = system: Staphylococcus aureus ATCC 21027; test: Biofilm formation assay (MTT); details: S. aureus, 18 h
Experimental: as §1

Row | SMILES | MIC50 (Candida albicans KMM 455 [1]) | Biofilm formation, MIC50 (Candida albicans KMM 455 [2]) | MIC50 [3] | MIC50 [4] | Biofilm formation, MIC50 [5] | Biofilm formation, MIC50 [6]
1 | C[C@@H]1[C@H](O)[C@@H](C)/C=C/C=C/C=C/C=C/C=C/C=C/C=C/[C@H](O[C@@H]2O[C@H](C)[C@@H](O)[C@H](N)[C@@H]2O)C[C@@H]2O[C@](O)(C[C@@H](O)C[C@@H](O)[C@H](O)CC[C@@H](O)C[C@@H](O)CC(=O)O[C@H]1C)C[C@H](O)[C@H]2C(=O)O [Amphotericin B, reference compound] | 1.18 ± 0.15 µM (≈ 1.09 µg/mL) | 1.38 ± 0.14 µM |  |  |  | 
2 | CNC(C)C1CCC(N)C(OC2C(N)CC(N)C(OC3OCC(C)(O)C(NC)C3O)C2O)O1 (stereo not drawn) [Gentamycin, reference compound] |  |  | 5.03 ± 0.77 µM (≈ 2.4 µg/mL) | 4.52 ± 0.98 µM (≈ 2.16 µg/mL) | 5.34 ± 0.50 µM | 4.34 ± 0.32 µM
